Measurements reported in EPA's ToxValDB 9.5.

Tested on: Rattus norvegicus
[1] = reproduction developmental, oral, gavage, M, Crl:CD(SD), generation: P0, P0: General Toxicity: Whole Body: Necropsy Appeared Normal + P0: Nervous: CNS: Latency to Mount
[2] = reproduction developmental, oral, gavage, M, Sprague-Dawley, generation: P0, P0: General Toxicity: Whole Body: Body Weight Change + P0: General Toxicity: Whole Body: Clinical Observations + P0: General Toxicity: Whole…
[3] = short-term, duration: 28 days, oral, gavage, F, Crl:CD(SD), Liver: Liver Weight, Relative + Liver: Liver, Enlarged + Teeth: Incisors, Discolored
[4] = short-term, duration: 28 days, oral, gavage, F, Crl:CD(SD), Whole Body: Dystocia
[5] = short-term, duration: 28 days, oral, gavage, M/F, Crl:CD(SD), Adrenal: Adrenal Cortex Histopathology + Blood: Chloride (CL), Blood + Blood: Globulin (G), Blood + Blood: Potassium (K), Blood + Blood: …
[6] = short-term, duration: 28 days, oral, gavage, M/F, Crl:CD(SD), Whole Body: Body Weight Change + Whole Body: Body Weight, Absolute
[7] = short-term, duration: 28 days, oral, gavage, M, Crl:CD(SD), Teeth: Incisors, Discolored + Teeth: Teeth, Mottled
[8] = subchronic, duration: 90 days, oral, gavage, F, Crl:CD(SD), Blood: Activated Partial Thromboplastin Time (APTT) + Blood: Cholesterol (CHOL), Total + Blood: Fluoride (Plasma) + Blood: Hematocrit (HCT…
[9] = subchronic, duration: 90 days, oral, gavage, F, Crl:CD(SD), Blood: Activated Partial Thromboplastin Time (APTT) + Blood: Hematocrit (HCT) + Blood: Hemoglobin (HGB) + Blood: Red Blood Cell (RBC) + …
[10] = subchronic, duration: 90 days, oral, gavage, F, Crl:CD(SD), Blood: Cholesterol (CHOL), Total + Kidney: Kidney Weight, Absolute + Kidney: Kidney Weight, Relative + Kidney: Kidney Weight, Relative to …
[11] = subchronic, duration: 90 days, oral, gavage, F, Crl:CD(SD), Blood: Fluoride (Plasma), Recovery + Blood: Inorganic Phosphorous (PHOS) + Calcium (CA) + Kidney: Blood Urea Nitrogen (BUN), Blood + Kidney…

Work on `OCCC(F)(F)C(F)(F)C(F)(F)C(F)(F)C(F)(F)C(F)(F)F` [2-(Perfluorohexyl)ethanol] yielded an NOAEL (reproduction developmental, oral, gavage, M/F, Crl:CD(SD), generation: P0, P0: Reproductive: Whole Body: Gestation Index) of 25 mg/kg-day, an LOAEL [1] of 225 mg/kg-day and an NOAEL [1] of 75 mg/kg-day. It also gave an NOAEL (reproduction developmental, oral, gavage, M, Crl:CD(SD), generation: P0, P0: Nervous: CNS: Latency to Mount) of 225 mg/kg-day, an LOAEL (reproduction developmental, oral, gavage, M, Sprague-Dawley, generation: P0, P0: Endocrine: Pituitary: Pituitary Gland Histopathology + P0: Endocrine: Pituitary: Pituitary Gland Weight, Absolute + P0: Endocrine: …) of 125 mg/kg-day and an LOAEL [2] of 125 mg/kg-day. It also gave an NOAEL [2] of 25 mg/kg-day, an NEL (short-term, duration: 4 weeks, inhalation, F, Crl:CD(SD), Adrenal: Adrenal Gland Weight, Absolute + Adrenal: Adrenal Gland Weight, Absolute, Recovery + Adrenal: Adrenal Gland Weight, Relative + …) of 1490 mg/m3 and an LEL (short-term, duration: 4 weeks, inhalation, F, Crl:CD(SD), Blood: Hematocrit (HCT) + Blood: Hemoglobin (HGB) + Blood: Red Blood Cell (RBC) + Bone: Decalcification, Trabeculae (4 wk) + Bone: …) of 1490 mg/m3. The NEL (short-term, duration: 4 weeks, inhalation, F, Crl:CD(SD), Blood: Hematocrit (HCT) + Blood: Hemoglobin (HGB) + Blood: Red Blood Cell (RBC) + Liver: Alanine Aminotransferase (ALT), Blood + Liver: …) was 149 mg/m3, the NEL (short-term, duration: 4 weeks, inhalation, M, Crl:CD(SD), Adrenal: Adrenal Gland Weight, Absolute + Adrenal: Adrenal Gland Weight, Absolute, Recovery + Adrenal: Adrenal Gland Weight, Relative + …) was 1490 mg/m3 and the LEL (short-term, duration: 4 weeks, inhalation, M, Crl:CD(SD), Bone: Decalcification, Trabeculae (4 wk) + Bone: Decalcification, Trabeculae (8 wk) + Kidney: Total Protein (TP), Urine + Liver: Albumin (A…) was 1490 mg/m3. For the same molecule, the NEL (short-term, duration: 4 weeks, inhalation, M, Crl:CD(SD), Kidney: Total Protein (TP), Urine + Liver: Albumin (A), Blood + Liver: Liver Weight, Absolute + Liver: Liver Weight, Relative + Liver: Liver…) was 149 mg/m3, the LEL [3] was 25 mg/kg-day and the NEL [3] was 5 mg/kg-day. The NEL (short-term, duration: 28 days, oral, gavage, F, Crl:CD(SD), Teeth: Teeth, Mottled) was 125 mg/kg-day, the LEL [4] was 225 mg/kg-day and the NEL [4] was 75 mg/kg-day. The LEL [5] was 225 mg/kg-day, the NEL [5] was 75 mg/kg-day and the LEL [6] was 75 mg/kg-day. It also gave an NEL [6] of 25 mg/kg-day, an NEL (short-term, duration: 28 days, oral, gavage, M, Crl:CD(SD), Liver: Liver Weight, Relative + Liver: Liver, Enlarged) of 125 mg/kg-day and an LEL [7] of 25 mg/kg-day. It also gave an NEL [7] of 5 mg/kg-day, an NEL (subchronic, duration: 90 days, oral, gavage, F, Crl:CD(SD), Adrenal: Adrenal Gland Weight, Absolute + Adrenal: Adrenal Gland Weight, Relative + Blood: Basophils + Blood: Calcium (CA), Blood + Blood: …) of 250 mg/kg-day and an LEL [8] of 125 mg/kg-day. The NEL [8] was 25 mg/kg-day, the LEL [9] was 125 mg/kg-day and the NEL [9] was 25 mg/kg-day. For the same molecule, the LEL [10] was 25 mg/kg-day, the NEL [10] was 5 mg/kg-day and the LEL [11] was 250 mg/kg-day. It also gave an NEL [11] of 125 mg/kg-day, an NEL (subchronic, duration: 90 days, oral, gavage, F, Crl:CD(SD), Blood: Inorganic Phosphorous (PHOS) + Blood: Triglycerides (TRIG) + Calcium (CA) + Kidney: Blood Urea Nitrogen (BUN), Blood + Kidney: …) of 250 mg/kg-day and an LOAEL (subchronic, duration: 90 days, oral, gavage, F, Crl:CD(SD), Cardiovascular: Heart: Heart Weight, Absolute + Cardiovascular: Heart: Heart Weight, Relative + Endocrine: Adrenal: Adrenal Gland Weight, …) of 25 mg/kg-day.
